Among the data in BindingDB's records for doi:10.1016/j.chembiol.2007.12.010 (Brandeis University, 2008) are IC50 values, retold here.

One may read the IC50 as the concentration that gives 50% inhibition.

Common to all, as to assay: Enzyme Inhibition Assay
Conditions in all cases: pH 8; 25 °C

For assay [1], the target named is T1, Inosine-5-monophosphate dehydrogenase (Cryptosporidium parvum, UniProt Q5CPK7).
T1 sequence (Q5CPK7 whole entry): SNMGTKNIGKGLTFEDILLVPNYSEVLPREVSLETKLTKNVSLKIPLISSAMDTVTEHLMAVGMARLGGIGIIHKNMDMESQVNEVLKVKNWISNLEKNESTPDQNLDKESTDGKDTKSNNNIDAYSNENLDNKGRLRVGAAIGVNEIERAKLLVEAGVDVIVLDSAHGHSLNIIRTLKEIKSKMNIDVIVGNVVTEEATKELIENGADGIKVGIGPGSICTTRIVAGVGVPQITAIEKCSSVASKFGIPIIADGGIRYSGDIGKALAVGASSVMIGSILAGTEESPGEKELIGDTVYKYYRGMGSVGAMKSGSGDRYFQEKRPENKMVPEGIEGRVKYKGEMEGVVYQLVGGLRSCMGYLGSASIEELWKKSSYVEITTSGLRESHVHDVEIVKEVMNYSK
From the text:
(§1) Enzyme inhibition assay using recombinant human IMPDH1 and IMPDH2 and C.parvum were expressed in guaB strains of escherichia coli.

The target in assay [2] is Inosine-5'-monophosphate dehydrogenase 2 (Homo sapiens, UniProt P12268).
Excerpt: as §1

The target in assay [3] is Inosine-5'-monophosphate dehydrogenase 1 (Homo sapiens, UniProt P20839).
Chain of Inosine-5'-monophosphate dehydrogenase 1 (P20839 whole entry): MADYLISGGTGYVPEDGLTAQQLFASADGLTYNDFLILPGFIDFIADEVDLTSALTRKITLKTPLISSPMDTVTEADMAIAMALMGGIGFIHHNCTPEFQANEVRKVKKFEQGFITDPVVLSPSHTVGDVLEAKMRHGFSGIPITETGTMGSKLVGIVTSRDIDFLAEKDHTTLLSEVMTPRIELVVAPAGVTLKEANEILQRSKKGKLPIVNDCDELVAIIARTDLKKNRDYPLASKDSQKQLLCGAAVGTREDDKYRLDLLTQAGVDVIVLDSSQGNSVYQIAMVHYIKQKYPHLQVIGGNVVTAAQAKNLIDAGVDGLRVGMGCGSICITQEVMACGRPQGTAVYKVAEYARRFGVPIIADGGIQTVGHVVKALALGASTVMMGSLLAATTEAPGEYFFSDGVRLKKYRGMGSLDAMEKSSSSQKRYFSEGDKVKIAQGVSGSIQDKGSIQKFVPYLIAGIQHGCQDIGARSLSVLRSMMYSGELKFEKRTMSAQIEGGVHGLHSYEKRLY
Excerpt: as §1

For `O=C(N/C=N\c1cccnc1)C1COc2ccccc2O1` (configuration not stated) [N-[(Z)-N-(pyridin-3-yl)carboximidoyl]-2,3-dihydro-1,4-benzodioxine-2-carboxamide, K], the IC50 in assay [1] is 19 µM; in assay [2] it was greater than 500 µM; in assay [3], greater than 500 µM.

`COC(=O)c1c(C)c(=O)[nH]c2ccccc12` [methyl 3-methyl-2-oxo-1,2-dihydroquinoline-4-carboxylate, Compound E]: the IC50 in assay [1] was 1.6 µM; in assay [2], greater than 25 µM; in assay [3] it was greater than 25 µM.

As to `O=c1[nH]c2ccc(Oc3ccc4[nH]c(=O)c(=O)[nH]c4c3)cc2[nH]c1=O` [Tetrahydroquinoxalin analog, J], the IC50 in assay [1] was 5.9 µM; in assay [2] it was greater than 50 µM; in assay [3], greater than 50 µM.

In the case of `CC(Oc1ccccc1)C(=O)Nc1ccc(Cl)cc1` (configuration not stated), the IC50 in assay [1] is 3.3 µM; in assay [2] it was greater than 50 µM; in assay [3] it was greater than 50 µM.
